Here are results for ten compounds from ChEMBL document CHEMBL1268984, “N-Substituted acetamidines and 2-methylimidazole derivatives as selective inhibitors of neuronal nitric oxide synthase” (Bioorg Med Chem Lett, 2010).

For assay [1], the target named is T1, Nitric oxide synthase, inducible (Mus musculus, UniProt P29477).
T1 sequence (P29477 whole entry): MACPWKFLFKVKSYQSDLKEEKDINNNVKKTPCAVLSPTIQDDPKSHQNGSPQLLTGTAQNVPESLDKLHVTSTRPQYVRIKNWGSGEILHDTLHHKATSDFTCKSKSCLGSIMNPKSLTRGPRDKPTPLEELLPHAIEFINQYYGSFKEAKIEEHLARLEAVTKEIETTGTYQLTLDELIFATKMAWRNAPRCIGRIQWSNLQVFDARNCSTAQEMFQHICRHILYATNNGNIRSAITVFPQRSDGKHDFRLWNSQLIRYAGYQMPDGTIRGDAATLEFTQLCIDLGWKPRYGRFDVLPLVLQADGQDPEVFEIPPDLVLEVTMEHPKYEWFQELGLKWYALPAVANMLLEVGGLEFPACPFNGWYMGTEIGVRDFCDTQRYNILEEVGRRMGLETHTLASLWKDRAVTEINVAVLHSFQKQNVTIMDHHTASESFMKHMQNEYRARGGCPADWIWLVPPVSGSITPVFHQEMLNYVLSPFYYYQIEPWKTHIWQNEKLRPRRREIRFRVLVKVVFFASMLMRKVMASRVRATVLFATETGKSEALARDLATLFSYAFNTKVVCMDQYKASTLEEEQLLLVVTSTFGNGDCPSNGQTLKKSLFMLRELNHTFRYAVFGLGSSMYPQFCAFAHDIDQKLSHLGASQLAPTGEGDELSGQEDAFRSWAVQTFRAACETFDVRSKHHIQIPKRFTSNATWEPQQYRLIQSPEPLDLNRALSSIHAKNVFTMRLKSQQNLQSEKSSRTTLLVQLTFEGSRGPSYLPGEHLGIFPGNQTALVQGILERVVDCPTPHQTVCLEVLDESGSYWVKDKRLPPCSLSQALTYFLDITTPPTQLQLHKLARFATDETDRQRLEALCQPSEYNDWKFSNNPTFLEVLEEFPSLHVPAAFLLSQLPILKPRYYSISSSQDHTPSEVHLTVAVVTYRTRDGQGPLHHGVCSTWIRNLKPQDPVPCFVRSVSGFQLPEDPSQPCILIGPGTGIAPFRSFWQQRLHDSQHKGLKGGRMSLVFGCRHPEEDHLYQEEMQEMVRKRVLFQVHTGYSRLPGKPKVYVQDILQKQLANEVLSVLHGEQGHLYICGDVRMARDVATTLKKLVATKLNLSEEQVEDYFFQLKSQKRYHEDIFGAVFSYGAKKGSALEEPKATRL
The assay is described as follows: Inhibition of mouse macrophage iNOS assessed as nitric oxide mediated oxidation of oxyhemoglobin to methemoglobin.

The target in assay [2] is Nitric oxide synthase 1 (Rattus norvegicus, UniProt P29476). The assay is described as follows: Inhibition of rat brain nNOS assessed as nitric oxide mediated oxidation of oxyhemoglobin to methemoglobin.
Assay [3] has as its target T2, Nitric oxide synthase 3 (Bos taurus, UniProt P29473).
T2 sequence (P29473 whole entry): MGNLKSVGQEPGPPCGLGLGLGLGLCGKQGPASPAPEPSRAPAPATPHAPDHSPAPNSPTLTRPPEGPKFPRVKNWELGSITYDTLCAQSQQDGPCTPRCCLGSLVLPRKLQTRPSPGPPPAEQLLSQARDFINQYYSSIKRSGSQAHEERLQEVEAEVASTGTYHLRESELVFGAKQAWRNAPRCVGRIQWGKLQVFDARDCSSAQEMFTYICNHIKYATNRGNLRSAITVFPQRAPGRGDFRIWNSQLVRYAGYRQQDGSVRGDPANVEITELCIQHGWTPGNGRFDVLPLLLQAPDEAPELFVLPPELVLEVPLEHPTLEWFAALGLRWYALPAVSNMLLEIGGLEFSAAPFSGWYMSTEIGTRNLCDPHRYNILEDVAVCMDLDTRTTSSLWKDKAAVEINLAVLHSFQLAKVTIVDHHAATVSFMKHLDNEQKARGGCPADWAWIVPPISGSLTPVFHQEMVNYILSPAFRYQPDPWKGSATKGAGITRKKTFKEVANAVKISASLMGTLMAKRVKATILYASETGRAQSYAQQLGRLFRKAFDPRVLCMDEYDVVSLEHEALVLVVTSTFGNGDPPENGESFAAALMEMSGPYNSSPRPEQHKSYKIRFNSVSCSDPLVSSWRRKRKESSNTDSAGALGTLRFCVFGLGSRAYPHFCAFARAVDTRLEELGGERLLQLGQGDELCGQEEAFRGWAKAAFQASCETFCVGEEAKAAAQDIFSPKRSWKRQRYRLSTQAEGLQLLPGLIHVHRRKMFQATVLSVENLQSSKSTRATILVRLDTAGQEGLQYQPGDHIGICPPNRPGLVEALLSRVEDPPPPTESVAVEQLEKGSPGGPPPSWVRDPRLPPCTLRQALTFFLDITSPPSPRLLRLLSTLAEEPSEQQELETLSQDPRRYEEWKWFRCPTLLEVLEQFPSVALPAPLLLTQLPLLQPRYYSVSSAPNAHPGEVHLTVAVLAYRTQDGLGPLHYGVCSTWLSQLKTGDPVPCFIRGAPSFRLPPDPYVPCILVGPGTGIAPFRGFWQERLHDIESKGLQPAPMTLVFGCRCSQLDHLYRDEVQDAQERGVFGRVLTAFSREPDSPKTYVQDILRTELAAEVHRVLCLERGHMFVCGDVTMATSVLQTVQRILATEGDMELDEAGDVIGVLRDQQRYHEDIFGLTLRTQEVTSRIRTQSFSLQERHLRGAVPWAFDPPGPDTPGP
The assay is described as follows: Inhibition of bovine eNOS assessed as nitric oxide mediated oxidation of oxyhemoglobin to methemoglobin.

The nature of assay [4]: Selectivity ratio, ratio of IC50 for bovine eNOS to IC50 for rat brain nNOS.
The nature of assay [5]: Selectivity ratio, ratio of IC50 for mouse macrophage iNOS to IC50 for rat brain nNOS.

The structures appear in SMILES notation.

Chain of Nitric oxide synthase 1 (P29476 whole entry): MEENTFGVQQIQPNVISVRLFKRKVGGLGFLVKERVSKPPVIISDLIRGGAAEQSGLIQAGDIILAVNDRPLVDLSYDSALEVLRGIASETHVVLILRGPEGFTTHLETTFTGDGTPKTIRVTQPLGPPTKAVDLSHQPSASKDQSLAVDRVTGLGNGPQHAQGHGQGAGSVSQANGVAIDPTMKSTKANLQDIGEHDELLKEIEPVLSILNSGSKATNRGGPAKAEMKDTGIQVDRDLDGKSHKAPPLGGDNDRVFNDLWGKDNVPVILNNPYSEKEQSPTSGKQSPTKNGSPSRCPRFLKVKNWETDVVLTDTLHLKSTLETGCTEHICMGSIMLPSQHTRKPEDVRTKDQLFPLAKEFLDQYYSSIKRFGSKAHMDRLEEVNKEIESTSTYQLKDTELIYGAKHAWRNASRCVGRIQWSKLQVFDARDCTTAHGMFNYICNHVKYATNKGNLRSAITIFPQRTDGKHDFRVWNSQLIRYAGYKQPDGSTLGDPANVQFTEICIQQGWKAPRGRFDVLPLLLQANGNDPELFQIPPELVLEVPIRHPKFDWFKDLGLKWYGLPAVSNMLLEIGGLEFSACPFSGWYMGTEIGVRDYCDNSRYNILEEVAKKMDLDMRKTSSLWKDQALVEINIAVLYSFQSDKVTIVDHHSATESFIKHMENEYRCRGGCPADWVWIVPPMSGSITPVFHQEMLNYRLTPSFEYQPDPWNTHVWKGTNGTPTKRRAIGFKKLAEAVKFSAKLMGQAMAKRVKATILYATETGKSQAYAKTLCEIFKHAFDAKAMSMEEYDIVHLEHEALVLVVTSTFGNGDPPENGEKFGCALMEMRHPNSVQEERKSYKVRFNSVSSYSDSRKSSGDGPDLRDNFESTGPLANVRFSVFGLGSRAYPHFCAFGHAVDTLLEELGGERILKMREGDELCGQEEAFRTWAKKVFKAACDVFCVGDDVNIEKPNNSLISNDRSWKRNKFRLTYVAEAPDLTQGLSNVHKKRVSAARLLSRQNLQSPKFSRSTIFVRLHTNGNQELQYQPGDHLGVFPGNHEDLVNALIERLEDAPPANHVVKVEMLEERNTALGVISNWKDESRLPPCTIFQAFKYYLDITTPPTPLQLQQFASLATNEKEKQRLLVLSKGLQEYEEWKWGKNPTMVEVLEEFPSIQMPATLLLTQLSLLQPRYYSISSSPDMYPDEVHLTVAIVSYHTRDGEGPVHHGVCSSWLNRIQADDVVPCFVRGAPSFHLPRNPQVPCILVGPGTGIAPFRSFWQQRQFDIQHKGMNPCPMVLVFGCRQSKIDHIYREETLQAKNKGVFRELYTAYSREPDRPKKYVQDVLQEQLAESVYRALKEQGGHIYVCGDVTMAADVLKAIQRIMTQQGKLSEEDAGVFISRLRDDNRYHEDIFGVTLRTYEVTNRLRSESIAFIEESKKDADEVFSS

As to `CC(=N)NC(c1ccccc1)c1ccccc1`, the IC50 (in general, the concentration that inhibits the measured activity by half) turned out to be 30 µM in assay [1], 0.3 µM in assay [2] and 350 µM in assay [3]. In addition, the Ratio IC50 in assay [4] came to 1170; in assay [5] it was 100.
For `COc1cccc(CNC(C)=N)c1`, the IC50 in assay [1] is 50 µM; in assay [2], 10 µM; in assay [3] it was 100 µM. Moreover, the figures for the Ratio IC50 in assay [4] and in assay [5] were 10 and 5, respectively.
On the same counts, the results for `CC(=N)NCc1ccc2c(c1)OCO2` are 800 µM, 400 µM, 400 µM, 1 and 2.
As to `CC(=N)N[C@@H](C)c1ccccc1`, the IC50 was 0.45 µM in assay [1], 150 µM in assay [2] and 300 µM in assay [3]. Moreover, the Ratio IC50 in assay [4] came to 2; in assay [5], 0.003.
For `CCC(NC(C)=N)c1ccccc1` (racemic) the same measures were 0.25 µM, 90 µM, 80 µM, 0.9 and 0.003.
For `CC(=N)NCc1ccccc1` the same measures were 0.2 µM, 150 µM, 350 µM, 2.3 and 0.013.
For `Cc1nccn1Cc1ccncc1` the same measures were 12 µM, 5 µM, 100 µM, 20 and 2.4.
As for `Cc1nccn1C(C)c1ccccc1` (racemic) [EFETOZOLE], the IC50 in assay [1] came out at 100 µM; in assay [2], 5 µM; in assay [3] it was 80 µM. In addition, the results for the Ratio IC50 in assay [4] and in assay [5] were 16 and 20, respectively.
For `Cc1nccn1Cc1ccccc1` the same measures were 50 µM, 5 µM, 90 µM, 18 and 10.
For `CC(=N)NC(c1ccccc1)C(C)C` (racemic) the same measures were 10 µM, 0.2 µM, 100 µM, 500 and 50.
